Data as given in patent US20070105840A1, “Pyrrolo-dihydroisoquinoline derivatives as pde10 inhibitors” (Altana Pharma AG, priority 2003, published 2007).

In the case of `COc1cc2c(cc1OC)-c1c(C#N)c(-c3cn(S(C)(=O)=O)c4ccccc34)c(C)n1C(C)C2` (stereo not shown) [Example 40, 2-(1-Methanesulfonyl-1H-indol-3-yl)-8,9-dimethoxy-3,5-dimethyl-5,6-dihydro-pyrrolo[2,1-a]isoquinoline-1-carbonitrile], the melting point is reported as 219 to 221 °C.
Work on `COc1cc2c(cc1OC)-c1c(C#N)c(-c3cc[n+]([O-])cc3)c(C)n1C(C)C2` (stereo not shown) [Example 41, 8,9-Dimethoxy-3,5-dimethyl-2-(1-oxy-pyridin-4-yl)-5,6-dihydro-pyrolo[2,1-a]isoquinoline-1-carbonitrile] yielded a melting point of 279 to 282 °C.
With `COc1cc2c(cc1OC)-c1c(C#N)c(-c3cc(C)c(O)c(C)c3)c(CN3CCOCC3)n1C(C)C2` (stereo not shown) [Example 44, 2-(4-Hydroxy-3,5-dimethyl-phenyl)-8,9-dimethoxy-5-methyl-3-morpholin-4-ylmethyl-5,6-dihydro-pyrrolo[2,1-a]isoquinoline-1-carbonitrile] the melting point was 228 to 230 °C.
Compound `COc1cc2c(cc1OC)-c1c(C#N)c(-c3ccnc(C)c3)c(C)n1C(C)C2` (stereo not shown) [Example 45] has a melting point of 187 to 189 °C.
In the case of `COc1cc2c(cc1OC)-c1c(C#N)c(-c3ccc([N+](=O)[O-])cc3)c(C)n1C(C)C2` (stereo not shown) [Example 46, 8,9-Dimethoxy-3,5-dimethyl-2-(4-nitro-phenyl)-5,6-dihydro-pyrrolo[2,1-a]isoquinoline-1-carbonitrile], the melting point is reported as 206 to 207 °C.
`COc1cc2c(cc1OC)-c1c(C#N)c(-c3ccc(C(=O)O)cc3)c(C)n1C(C)C2` (stereo not shown) [Example 47, 4-(1-Cyano-8,9-dimethoxy-3,5-dimethyl-5,6-dihydro-pyrrolo[2,1-a]isoquinolin-2-yl)-benzoic acid] gave a melting point of 287 to 289 °C.
In the case of `COc1cc2c(cc1OC)-c1c(C#N)c(-c3ccc(N)cc3)c(C)n1C(C)C2` (stereo not shown) [Example 48, 2-(4-Amino-phenyl)-8,9-dimethoxy-3,5-dimethyl-5,6-dihydm-pyrrolo[2,1-a]isoquinoline-1-carbonitrile], the melting point is reported as 237 to 239 °C.
Compound `COc1cc2c(cc1OC)-c1c(C#N)c(-c3ccncc3C)c(C)n1C(C)C2` (stereo not shown) [Example 49, 8,9-Dimethoxy-3,5-dimethyl-2-(3-methyl-pyridin-4-yl)-5,6-dihydro-pyrrolo[2,1-a]isoquinoline-1-carbonitrile] has a melting point of 232 to 233 °C.
`CCOc1cc2c(cc1OC)-c1c(C#N)c(-c3ccc(C(=O)O)cc3)c(C)n1C(C)C2` (stereo not shown) [Example 50, 4-(1-Cyano-8-ethoxy-9-methoxy-3,5-dimethyl-5,6-dihydro-pyrrolo[2,1-a]isoquinolin-2-yl)-benzoic acid] showed a melting point of 274 to 277 °C.
With `COc1cc2c(cc1OC)-c1c(C#N)c(-c3ccc(O)cc3C)c(C)n1C(C)C2` (stereo not shown) [Example 51, 2-(4-Hydroxy-2-methyl-phenyl)-8,9-dimethoxy-3,5-dimethyl-5,6-dihydro-pyrrolo[2,1-a]isoquinoline-1-carbonitrile] the melting point was 228 to 230 °C.
`COc1cc2c(cc1OC)-c1c(C#N)c(-c3ccc(C(N)=O)cc3)c(C)n1C(C)C2` (stereo not shown) [Example 52, 4-(1-Cyano-8,9-dimethoxy-3,5-dimethyl-5,6-dihydro-pyrrolo[2,1-a]isoquinolin-2-yl)-benzamide] showed a melting point of 228 to 230 °C.
Compound `CCOc1cc2c(cc1OC)-c1c(C#N)c(-c3cc(C)c(O)c(C)c3)c(C)n1C(C)C2` (stereo not shown) [Example 53, 8-Ethoxy-2-(4-hydroxy-3,5-dimethyl-phenyl)-9-methoxy-3,5-dimethyl-5,6-dihydro-pyrrolo[2,1-a]isoquinoline-1-carbonitrile] has a melting point of 232 to 234 °C.
In the case of `COc1cc2c(cc1OC)-c1c(C#N)c(-c3cn(S(=O)(=O)N(C)C)c4ccccc34)c(C)n1C(C)C2` (stereo not shown) [Example 54, 3-(1-Cyano-8,9-dimethoxy-3,5-dimethyl-5,6-dihydro-pyrrolo[2,1-a]isoquinolin-2-yl)-indole-1-sulfonic acid dimethylamide], the melting point is reported as 236 to 237 °C.
Work on `COc1cc2c(cc1OC)-c1c(C#N)c(-c3ccc(-c4nn[nH]n4)cc3)c(C)n1C(C)C2` (stereo not shown) [Example 57, 8,9-Dimethoxy-3,5-dimethyl-2-[4-(2H-tetrazol-5-yl)-phenyl]-5,6-dihydro-pyrrolo[2,1-a]isoquinoline-1-carbonitrile] yielded a melting point of 204 to 207 °C.
In the case of `COc1cc2c(cc1OC)-c1c(C#N)c(-c3ccc(NS(=O)(=O)N4CCOCC4)cc3)c(C)n1C(C)C2` (stereo not shown) [Example 58, Morpholine-4-sulfonic acid [4-(1-cyano-8,9-dimethoxy-3,5-dimethyl-5,6-dihydro-pyrrolo[2,1-a]isoquinolin-2-yl)-phenyl]-amide], the melting point is reported as 223 to 225 °C.
`COc1cc2c(cc1OC)-c1c(C#N)c(-c3ccc(NS(C)(=O)=O)cc3)c(C)n1C(C)C2` (stereo not shown) [Example 59, N-[4-(1-Cyano-8,9-dimethoxy-3,5-dimethyl-5,6-dihydro-pyrrolo[2,1-a]isoquinolin-2-yl)-phenyl]-methanesulfonamide] gave a melting point of 257 to 259 °C.
For `COC(=O)c1c(-c2cc(C)c(O)c(C)c2)c(C)n2c1-c1cc(OC)c(OC)cc1CC2C` (stereo not shown) [Example 65, 2-(4-Hydroxy-3,5-dimethyl-phenyl)-8,9-dimethoxy-3,5-dimethyl-5,6-dihydro-pyrrolo[2,1-a]isoquinoline-1-carboxylic acid methyl ester], the melting point was 177 to 179 °C.
`COC(=O)c1c(-c2cn(S(=O)(=O)c3ccc(C)cc3)c3ccccc23)c(C)n2c1-c1cc(OC)c(OC)cc1CC2C` (stereo not shown) [Example 66, 8,9-Dimethoxy-3,5-dimethyl-2-[1-(toluene-4-sulfonyl)-1H-indol-3-yl]-5,6-dihydro-pyrrolo[2,1-a]isoquinoline-1-carboxylic acid methyl ester] showed a melting point of 177 to 179 °C.
Compound `COc1cc2c(cc1OC)-c1c(C)c(-c3cc(C)c(O)c(C)c3)c(C)n1CC2` [Example 68, 4-(8,9-Dimethoxy-1,3-dimethyl-5,6-dihydro-pyrrolo[2,1-a]isoquinolin-2-yl)-2,6-dimethyl-phenol] has a melting point of 183 to 185 °C.
